For orientation: MIC means the least concentration at which growth counts as inhibited. One may read the MIC90 as an inhibitory concentration at the 90% level, which refers to growth in some studies and to a panel of isolates in others.

Each structure is given as a SMILES string. Converted amounts (≈) assume the structure as drawn. Read-outs that look alike come from different tables or passages of the source. Bounds are passed on as bounds.

Experiment [1] concerns pneumococci (5 quinolone susceptible and 1 resistant strains). In words: Post-antibiotic effect (PAE) testing. In kind it is cell-based, Streptococcus pneumoniae. The settings on record: for PAE for non-quinolone compounds: range over strains. The procedure:
The post-antibiotic effect (PAE) (Craig, et al., V. Lorian (ed.) Antibiotics in Laboratory Medicine, Williams and Wilkins, Baltimore, pages 296-399, 1996) was determined by the viable plate count method, using Mueller-Hinton broth (MHB) supplemented with 5% lysed horse blood when testing pneumococci. […] Additionally, the one quinolone resistant strain was exposed at quinolone concentrations 5×MIC. Tubes containing 5 ml broth with antibiotic were inoculated with approximately 5×10^6 cfu/ml. Growth controls with inoculum but no antibiotic were included with each experiment. Tubes were placed in a shaking water bath at 35° C. for 1 h. At the end of the exposure period, cultures were diluted 1:1000 to remove antibiotic.
Viability counts were determined before exposure and immediately after dilution (0 h), and then every 2 h until tube turbidity reached a #1 McFarland standard. Inocula were prepared by suspending growth from an overnight blood agar plate in broth. The broth was incubated at 35° C. for 2-4 h in a shaking water bath until turbidity matched a #1 McFarland standard, and checked for viability by plate counts (Spangler, et al., Antimicrob. Agents Chemother. 41:2173-9176, 1997; Spangler, et al., Antimicrob. Agents Chemother. 42:1253-1255, 1998).
The PAE was defined as PAE=T-C; T=time required for viability counts of an antibiotic-exposed culture to increase by 1 log10 above counts immediately after dilution; C=corresponding time for growth control. For each experiment, viability counts (log10 cfu/ml) were plotted against time, and results expressed as the mean of two separate assays±S D (Craig, et al., V. Lorian (ed), Antibiotics in Laboratory Medicine, Williams and Wilkins, Baltimore, pages 296-329, 1996).

For another experiment, the system named is pneumococcal strains. In words: Microbroth dilution MICs of strains tested by time-kill and PAE. In kind it is cell-based. The settings on record: Streptococcus pneumoniae, read-out: Microdilution MIC. The procedure:
(§1) Agar dilution methodology was performed on 234 strains as described previously (M. R. Jacobs, Clin. Infect. Dis. 15:119-127, 1992; Jacobs, et al., Rev. Med. Microbiol. 6:77-93, 1995), using Mueller-Hinton agar (BBL Microbiology Systems, Cockeysville, Md.) supplemented with 5% sheep blood. Broth MICs for 12 strains tested by time-kill and 6 tested by PAE were performed according to NCCLS recommendations (Methods for Dilution Antimicrobial Susceptibility Tests for Bacteria that Grow Aerobically, 3rd Edition, NCCLS, Villanova, Pa.) using cation-adjusted Mueller-Hinton broth with 5% lysed defibrinated horse blood. Standard quality control strains, including Streptococcus pneumoniae ATCC 49619, were included in each run of agar and broth dilution MICs.
(Dilution methods test growth across graded concentrations, often in twofold steps.)

Experiment [2] relates to quinolone susceptible pneumococci (ciprofloxacin MICs ≦4.0 μg/ml). In words: Agar dilution MICs of 207 quinolone susceptible pneumococcal strains. Format: cell-based, Streptococcus pneumoniae. Particulars: agar dilution; for MIC: read-out: MIC range. The procedure:
All susceptible, and some intermediate and resistant strains, were recent U.S. isolates. The remainder of intermediate and resistant strains were isolated in South Africa, Spain, France, Central and Eastern Europe, and Korea. […] Additionally these strains were tested for mutations in parC, gyrA, parE, and gyrB (Pan, et al., Antimicrob. Agents Chemother. 40:2321-2326, 1996) and for efflux mechanism (Brenwald, et al., Antimicrob. Agents Chemother. 42:2032-2035, 1998). For time-kill studies, 4 penicillin susceptible, 4 intermediate and 4 resistant strains (2 quinolone resistant) were tested, while for PAE studies 5 quinolone susceptible and 1 resistant strains were studied.
as §1
In general terms: Agar dilution tests growth on a series of plates holding different concentrations.

In experiment [3] the test system is quinolone-resistant Haemophilus influenzae strains. In words: Microdilution MIC determination in HTM for quinolone-resistant Haemophilus influenzae strains. Format: cell-based. The settings on record: 9 quinolone-resistant Haemophilus influenzae strains. The method, then: Inocula were prepared from chocolate agar plates incubated for a full 24 hours by the direct colony suspension method as follows: In a tube of Mueller-Hinton broth (Difco), an organism suspension was made to a density of a 0.5 McFarland standard (1×10^8 CFU/ml). The latter inoculum was diluted in sterile saline such that final organisms suspensions in trays yielded colony counts of 3-8×10^5 CFU/ml. Frozen microdilution trays were obtained from MicroMedia Systems, Inc. (Cleveland, Ohio, USA). Each tray contained all antimicrobials prepared in freshly made HTM. Wells were inoculated with 100 μl suspensions and incubated in ambient air at 35° C. for 20-24 hours. The lowest drug concentration showing no growth was read as the MIC. Standard quality control strains, including H. influenzae ATCC 49766, H. influenzae ATCC 49247, Staphylococcus aureus ATCC 29213 and Escherichia coli ATCC 25922 were included with each run.

The subject of experiment [4] is quinolone resistant pneumococci. In words: Determination of efflux mechanism: MICs in the presence and absence of reserpine. Format: cell-based, Streptococcus pneumoniae. The procedure:
MICs were determined in the presence and absence of 10 μg/ml of reserpine (Sigma Chemicals, St. Louis, Mo.) as known in the art.
MICs were determined in the presence and absence of […] of reserpine (Sigma Chemicals, St. Louis, Mo., USA) as described previously (Brenwald, et al., Antimicrob. Agents Chemother. 42:2039-2035, 1998 and Davies, et al., Antimicrob. Agents Chemother. 43:1177-1182S, 1999).

Where [5] appears, read: strain 1 (S) penicillin susceptible.
The mark [6] stands for this setting: strain 2 (S) penicillin susceptible.
[7] abbreviates: strain 3 (S) penicillin susceptible, quinolone-resistant.
Where [8] appears, read: strain 5 (I) penicillin intermediate.
[9] abbreviates: strain 6 (I) penicillin intermediate.
Setting [10] is: strain 9 (R) penicillin resistant.
[11] abbreviates: strain 12 (R) penicillin resistant.
Setting [12] is: Streptococcus pneumoniae, Penicillin I strains, read-out: MIC90.
Setting [13] is: Streptococcus pneumoniae, Penicillin R strains.
The mark [14] stands for this setting: Streptococcus pneumoniae, Penicillin R strains, read-out: MIC90.
Where [15] appears, read: Streptococcus pneumoniae, Penicillin S strains, read-out: MIC90.
Setting [16] is: strain 4 (S) penicillin susceptible, quinolone-resistant.
Where [17] appears, read: strain 7 (I) penicillin intermediate.
The mark [18] stands for this setting: strain 8 (I) penicillin intermediate.
Where [19] appears, read: strain 11 (R) penicillin resistant.
[20] abbreviates: Streptococcus pneumoniae, Penicillin I strains.
The mark [21] stands for this setting: Streptococcus pneumoniae, Penicillin S strains.

Take `CC[C@H]1OC(=O)[C@H](C)[C@@H](O[C@H]2C[C@@](C)(OC)[C@@H](O)[C@H](C)O2)[C@H](C)[C@@H](O[C@@H]2O[C@H](C)C[C@H](N(C)C)[C@H]2O)[C@](C)(O)C[C@@H](C)CN(C)[C@H](C)[C@@H](O)[C@]1(C)O` [Azithromycin, azithromycin]: the “PAE for non-quinolone compounds” value in experiment [1] (10×MIC) was in the range of 1.3 to 3.0 h. For the same compound, the MIC is 0.008 µg/mL (≈ 0.0107 µM) with pneumococcal strains (setting [5]); 0.06 µg/mL (≈ 0.0801 µM) in the experiment on pneumococcal strains (setting [6]); more than 64 µg/mL in the experiment with pneumococcal strains (setting [7]); more than 64 µg/mL in the experiment with pneumococcal strains (setting [8]); 0.03 µg/mL (≈ 0.0401 µM) in the experiment with pneumococcal strains (setting [9]); more than 64 µg/mL in the experiment with pneumococcal strains (setting [10]). Also, the MIC in the experiment with pneumococcal strains (strain 10 (I)) and in the experiment with pneumococcal strains (setting [11]) was more than 64 µg/mL in each case. The MIC90 was more than 128 µg/mL in experiment [2] (setting [12]); more than 128 µg/mL in experiment [2] (setting [14]); 0.5 µg/mL (≈ 0.668 µM) in experiment [2] (setting [15]); more than 128.0 µg/mL in experiment [2] (Penicillin I strains); more than 128.0 µg/mL in experiment [2] (Penicillin R strains). In experiment [2] (setting [13]), the MIC50 turned out to be 4 µg/mL (≈ 5.34 µM).
Compound `O=C(O)c1cn(C2CC2)c2cc(N3CCNCC3)c(F)cc2c1=O` [Ciprofloxacin, ciprofloxacin] gave an MIC50 in experiment [3] of 1 µg/mL (≈ 3.02 µM). Besides, in experiment [3], the “MIC Range” value lay in the range of 0.25 to 8.0 µg/mL. In addition, the PAE in experiment [1] (5×MIC, quinolone resistant strain) was 3.7 h; in experiment [1] (10×MIC for 1 h, range over 5 quinolone susceptible strains) it was 0.5 to 1.5 h; in experiment [1] (10×MIC, quinolone resistant strain), 6.3 h. Besides, in experiment [4] (of 28 quinolone resistant strains, 10 μg/ml reserpine), the “number of strains with lower MICs in the presence of reserpine” value was determined as 23 strains. The “Number of dilutions decrease after incubation with reserpine” value (“Number of dilutions decrease” for short) in experiment [4] (strain 1) was determined as 2x X; in experiment [4] (strain 2) it was 8x X; in experiment [4] (strain 6), 2X; in experiment [4] (strain 8) it was 2X; in experiment [4] (strain 9), 8X; in experiment [4] (strain 10), 2X. The “Number of dilutions decrease” value in experiment [4] (strain 11) was 16X; in experiment [4] (strain 13), 2X; in experiment [4] (strain 18), 2X; in experiment [4] (strain 19), 2X; in experiment [4] (strain 20), 2X; in experiment [4] (strain 21) it was 2X. Further, the “Number of dilutions decrease” value was found to be 2X in experiment [4] (strain 22), 8X in experiment [4] (strain 23), 2x X in experiment [4] (strain 24) and 8x X in experiment [4] (strain 28).
On to `CC[C@H]1OC(=O)[C@H](C)[C@@H](O[C@H]2C[C@@](C)(OC)[C@@H](O)[C@H](C)O2)[C@H](C)[C@@H](O[C@@H]2O[C@H](C)C[C@H](N(C)C)[C@H]2O)[C@](C)(OC)C[C@@H](C)C(=O)[C@H](C)[C@@H](O)[C@]1(C)O` [Clarithromycin, clarithromycin], for which the “PAE for non-quinolone compounds” value in experiment [1] (10×MIC) fell in the range of 1.8 to 4.5 h. In addition, the MIC was 0.008 µg/mL (≈ 0.0107 µM) in the experiment with pneumococcal strains (setting [5]); 0.03 µg/mL (≈ 0.0401 µM) in the experiment on pneumococcal strains (setting [6]); more than 64 µg/mL with pneumococcal strains (setting [7]); 0.03 µg/mL (≈ 0.0401 µM) with pneumococcal strains (setting [16]); 32 µg/mL (≈ 42.8 µM) in the experiment on pneumococcal strains (setting [8]); 0.008 µg/mL (≈ 0.0107 µM) in the experiment on pneumococcal strains (setting [9]). Also, the MIC is 0.016 µg/mL (≈ 0.0214 µM) with pneumococcal strains (setting [17]); 0.03 µg/mL (≈ 0.0401 µM) in the experiment on pneumococcal strains (setting [18]); more than 64 µg/mL with pneumococcal strains (setting [10]); more than 64 µg/mL with pneumococcal strains (strain 10 (I)); 0.03 µg/mL (≈ 0.0401 µM) with pneumococcal strains (setting [19]); more than 64 µg/mL in the experiment on pneumococcal strains (setting [11]). Also, the MIC50 in experiment [2] (setting [20]) was determined as 0.03 µg/mL (≈ 0.0401 µM); in experiment [2] (setting [13]) it was 2 µg/mL (≈ 2.67 µM); in experiment [2] (setting [21]), 0.03 µg/mL (≈ 0.0401 µM). The MIC90 in experiment [2] (setting [12]) was 32 µg/mL (≈ 42.8 µM); in experiment [2] (setting [14]) it was more than 128 µg/mL; in experiment [2] (setting [15]), 0.06 µg/mL (≈ 0.0802 µM); in experiment [2] (Penicillin R strains), more than 128.0 µg/mL.
For the compound `CC1(C)S[C@@H]2[C@H](NC(=O)Cc3ccccc3)C(=O)N2[C@H]1C(=O)O` [Penicillin, penicillin G], the MIC is 0.06 µg/mL (≈ 0.179 µM) with pneumococcal strains (setting [5]); 0.03 µg/mL (≈ 0.0897 µM) in the experiment on pneumococcal strains (setting [6]); 0.016 µg/mL (≈ 0.0478 µM) with pneumococcal strains (setting [7]); 0.016 µg/mL (≈ 0.0478 µM) in the experiment on pneumococcal strains (setting [16]); 0.25 µg/mL (≈ 0.748 µM) with pneumococcal strains (setting [8]); 0.25 µg/mL (≈ 0.748 µM) in the experiment with pneumococcal strains (setting [9]). The MIC with pneumococcal strains (setting [17]) amounted to 1 µg/mL (≈ 2.99 µM); in the experiment on pneumococcal strains (setting [18]) it was 0.5 µg/mL (≈ 1.5 µM); in the experiment with pneumococcal strains (setting [10]), 4 µg/mL (≈ 12 µM); in the experiment on pneumococcal strains (strain 10 (I)) it was 2 µg/mL (≈ 5.98 µM); in the experiment on pneumococcal strains (setting [19]), 4 µg/mL (≈ 12 µM); in the experiment on pneumococcal strains (setting [11]), 4 µg/mL (≈ 12 µM). Besides, the MIC in experiment [2] (setting [20]) was 0.125 to 1 µg/mL (≈ 0.374 to 2.99 µM); in experiment [2] (setting [13]), 2 to 16 µg/mL (≈ 5.98 to 47.8 µM); in experiment [2] (setting [21]), 0.008 to 0.06 µg/mL (≈ 0.0239 to 0.179 µM). In addition, the MIC50 is 0.25 µg/mL (≈ 0.748 µM) in experiment [2] (setting [20]), 4 µg/mL (≈ 12 µM) in experiment [2] (setting [13]) and 0.016 µg/mL (≈ 0.0478 µM) in experiment [2] (setting [21]). Further, the MIC90 came out at 1 µg/mL (≈ 2.99 µM) in experiment [2] (setting [12]), 4 µg/mL (≈ 12 µM) in experiment [2] (setting [14]) and 0.03 µg/mL (≈ 0.0897 µM) in experiment [2] (setting [15]).

For the origin of these results see US20040044006A1, “Methods of use of quinolone compounds against pneumococcal and haemophilus bacteria” (priority 1999, published 2004).
